Measured values as given in patent US12195473B2, “KRAS mutant protein inhibitors” (JACOBIO PHARMACEUTICALS CO., LTD, priority 2019, dated 2025).
Read-outs that look alike come from different tables or passages of the source. Blank lines part the entries; values can stand above or below the molecule they belong to.

Assays:
[1] = Dog pharmacokinetic study; type: in vivo, beagle dog; conditions: for clearance / Vd / AUC(0-t) / Cmax / bioavailability / CL / VSS / AUC0-24 h / Oral BA (F %): beagle dog; for clearance / Vd / CL / VSS: 1 mg/kg, iv; for Vd: read-out: VSS; for AUC(0-t) / Cmax / bioavailability / AUC0-24 h / Oral BA (F %): 10 mg/kg, po; for AUC(0-t): read-out: AUC0-24 h; for bioavailability: read-out: Oral BA (F %)
Description: 4. Dog Pharmacokinetic Study
The purpose of this study was to evaluate the pharmacokinetic properties of compounds in beagle dog following single dose administration. The day before administration, dogs were fasted overnight and free access to water. Four beagle dogs were needed for each compound and the four dogs were divided into two groups (one male (♂) and one female (♀) in each group). Dogs in group A were treated with a single 1 mg/kg dose of compound (iv). Dogs in group B were treated with a single 10 mg/kg dose of compound (po). For dogs in group A, blood samples were collected at pre-dose, and at the time point of 0.083, 0.25, 0.5, 1, 2, 4, 6, 8 and 24 h. For dogs in group B, blood samples were collected at pre-dose, and at the time point of 0.25, 0.5, 1, 2, 4, 6, 8 and 24 h post-dose. Blood samples were placed on ice until centrifugation to obtain plasma samples. The plasma samples were stored at −80° C. until analysis. The concentration of compound in plasma samples were determined using a LC-MS/MS method.

HIS-KRAS (G12C) = type: biochemical; conditions: read-out: SOS1 catalyzed nucleotide exchange IC50
[2] = test system: NCI-H358 cells expressing KRAS G12C; experiment: Phospho-ERK1/2(THR202/TYR204) HTRF assay; type: cell-based; conditions: 2 hours incubation, read-out: p-ERK IC50
Description: NCI-H358 cells expressing KRAS G12C were cultured in RPMI 1640 medium (Gibco) containing 10% fetal bovine serum (Gibco). The NCI-H358 cells in culture medium were seeded in 96-well plates at a concentration of 40,000 cells/well and then put in a 37° C./5% CO2 cell incubator to incubate overnight. The next day, culture medium was removed and the compound diluted in assay medium (RPMI 1640, 0.1% FBS) was added in each well. After 2 hours incubation in a 37° C./5% CO2 cell incubator, the assay medium in 96-well plates was removed, then 50 μL of 1× blocking reagent-supplemented lysis buffer (Cisbio) was added and the plates were incubated at 25° C. for 45 min with shaking. 10 μL of cell lysates from the 96-well plates were transferred to a 384-well plate (Greiner) containing 2.5 μL/well HTRF® pre-mixed antibodies (Cisbio 64AERPEH). Incubate 4 hours at 25° C. and then read HTRF signals on Tecan Spark multimode microplate reader. The data were analyzed using a 4-parameter logistic model to calculate IC50 values.

[3] = Mouse pharmacokinetic study; type: in vivo, Balb/c mouse; conditions: plasma, Balb/c mouse (female); for clearance / Vd: 3 mg/kg, iv; for Vd: read-out: Vss; for Cmax / AUC(0-t) / bioavailability: 10 mg/kg, po; for AUC(0-t): read-out: AUC0-24 h; for bioavailability: read-out: Oral BA (F %)
Description: 3. Mouse Pharmacokinetic Study
The purpose of this study was to evaluate the pharmacokinetic properties of compounds in Balb/c mouse (♀) following single dose administration. The day before administration, mice were fasted overnight and free access to water. Six mice were needed for each compound and the six mice were divided into two groups (n=3/group), group A and group B. Mice in group A were treated with a single 3 mg/kg dose of compound (iv). Mice in group B were treated with a single 10 mg/kg dose of compound (po). For each mouse in group A, blood samples were collected at pre-dose, and at the time point of 0.083, 0.25, 0.5, 1, 2, 4, 6, 8 and 24 h post-dose. For each mouse in group B, blood samples were collected at pre-dose, and at the time point of 0.25, 0.5, 1, 2, 3, 4, 6, 8 and 24 h post-dose. Blood samples were placed on ice until centrifugation to obtain plasma samples. The plasma samples were stored at −80° C. until analysis. The concentration of compound in plasma samples were determined using a LC-MS/MS method.

[4] = Safety exploration in MIA PaCa-2 xenograft model; type: in vivo; conditions: MIA PaCa-2 xenograft mice, 400 mg/kg, po, QD, 22 days
Description: 7. Safety Exploration in MIA PaCa-2 xenograft Model
. Mice were monitored daily and caliper measurements began when tumors became visible. Tumor volume was calculated by measuring two perpendicular diameters using the following formula: (L*W^2)/2 in which L and W refer to the length and width tumor diameter, respectively. After mice were grouped to study the efficacy, the remaining mice (n=6) were used to explore the safety. The mice were treated with 400 mg/kg compound 1-2 (po, QD) for 22 days, and mice body weight was measured twice a week during treatment. […]

NCI-H1373 cells = experiment: Efficacy in NCI-H1373 xenograft model; type: in vivo, BALB/c nude mice
Description: 6. The Efficacy in NCI-H1373 Xenograft Model
NCI-H1373 cells (5.0E+06 cells) were injected subcutaneously into the right flank of female BALB/c nude mice (6-8 weeks) in a mixture with PBS and Matrigel (Corning) (PBS/Matrigel=1:1 (v/v)). Mice were monitored daily and caliper measurements began when tumors became visible. Tumor volume was calculated by measuring two perpendicular diameters using the formula: (L*W^2)/2 in which L and W refer to the length and width tumor diameter, respectively. When the average tumor volume reached 150-200 mm^3, mice were grouped randomly (n=6/group) and treated with compounds. Tumor volume and mice weight was measured twice a week during treatment (˜ 3 weeks). […] The results are in the following Table 13 and FIG. 8: […]

[5] = Cynomolgus monkey pharmacokinetic study; type: in vivo; conditions: for CL / VSS / AUC0-24 h / Cmax / Oral BA (F %): Cynomolgus monkey; for CL / VSS: 1 mg/kg, iv; for AUC0-24 h / Cmax / Oral BA (F %): 3 mg/kg, po
Description: 5. Cynomolgus Monkey Pharmacokinetic Study
The purpose of this study was to evaluate the pharmacokinetic properties of compounds in Cynomolgus monkey following single dose administration. The day before administration, monkeys were fasted overnight and free access to water. Four monkeys are needed for each compound and the four monkeys were divided into two groups (one male(♂) and one female (♀) in each group), group A and group B. Monkeys in group A were treated with a single 1 mg/kg dose of compound (iv). Monkeys in group B were treated with a single 3 mg/kg dose of compound (po). For monkeys in group A, blood samples were collected at pre-dose, and at the time point of 0.083, 0.25, 0.5, 1, 2, 4, 6, 8 and 24 h. For monkeys in group B, blood samples were collected at pre-dose, and at the time point of 0.25, 0.5, 1, 2, 4, 6, 8 and 24 h post-dose. Blood samples were placed on ice until centrifugation to obtain plasma samples. The plasma samples were stored at −80° C. until analysis. The concentration of compound in plasma samples were determined using a LC-MS/MS method.

Structure (SMILES): C=CC(=O)N1CCN(c2c(C#N)c(=O)n(-c3c(C(C)C)ncnc3C(C)C)c3nc(-c4c(N)cccc4F)c(Cl)cc23)CC1 [Amgen 6.3, 4-(4-acryloylpiperazin-1-yl)-7-(2-amino-6-fluorophenyl)-6-chloro-1-(4,6-diisopropylpyrimidin-5-yl)-2-oxo-1,2-dihydro-1,8-naphthyridine-3-carbonitrile]
- clearance ([1]; plasma, female): 329 mL/min/kg
- Vd ([1]; plasma, female): 3.1 L/kg
- clearance ([1]; plasma, male): 239 mL/min/kg
- Vd ([1]; plasma, male): 2.3 L/kg
- AUC(0-t) ([1]; plasma, male): 5.1 ng·h/mL
- Cmax ([1]; plasma, male, read-out: Cmax): 8 ng/mL
- bioavailability ([1]; plasma, male): 0.7%
- IC50 (HIS-KRAS (G12C); GDP-loaded HIS-KRAS (G12C), 1 hour pre-incubation with compound, TR-FRET): 2.77 nM
- IC50 ([2]; Homo sapiens): 20.1 nM
- clearance [3]: 32 mL/min/kg
- Vd [3]: 1.4 L/kg
- Cmax [3]: 1590 ng/mL
- AUC(0-t) [3]: 1660 ng·h/mL
- bioavailability [3]: 32%

- clearance ([1]; plasma, female): 15.5 mL/min/kg
- Vd ([1]; plasma, female): 0.543 L/kg
- AUC(0-t) ([1]; plasma, female): 1330 ng·h/mL
- Cmax ([1]; plasma, female, read-out: Cmax): 2580 ng/mL
- bioavailability ([1]; plasma, female): 12.4%
- clearance ([1]; plasma, male): 11.8 mL/min/kg
- Vd ([1]; plasma, male): 0.412 L/kg
- AUC(0-t) ([1]; plasma, male): 2940 ng·h/mL
- Cmax ([1]; plasma, male, read-out: Cmax): 3690 ng/mL
- bioavailability ([1]; plasma, male): 20.9%
- IC50 ([2]; Homo sapiens): 29.9 nM
- clearance [3]: 72 mL/min/kg
- Vd [3]: 2.6 L/kg
- Cmax [3]: 901 ng/mL
- AUC(0-t) [3]: 1030 ng·h/mL
- bioavailability [3]: 44%
Structure (SMILES): C=CC(=O)N1CCN(c2c(C#N)c(=O)n(-c3c(C)ccnc3C(C)C)c3nc(-c4ccccc4F)c(Cl)cc23)CC1 [Amgen 6, 4-(4-acryloylpiperazin-1-yl)-6-chloro-7-(2-fluorophenyl)-1-(2-isopropyl-4-methylpyridin-3-yl)-2-oxo-1,2-dihydro-1,8-naphthyridine-3-carbonitrile]

Structure (SMILES): C=CC(=O)N1CCN(c2c(C#N)c(=O)n(-c3c(C)ccnc3C(C)C)c3nc(-c4c(N)c(F)c(F)c(F)c4F)c(Cl)cc23)CC1 (atropisomer, axis not shown; (P)) [Compound 1-1, (P)-4-(4-acryloylpiperazin-1-yl)-7-(2-amino-3,4,5,6-tetrafluorophenyl)-6-chloro-1-(2-isopropyl-4-methylpyridin-3-yl)-2-oxo-1,2-dihydro-1,8-naphthyridine-3-carbonitrile]
- IC50 (HIS-KRAS (G12C)): 14.1 nM
- IC50 [2]: 176 nM

Structure (SMILES): C=CC(=O)N1CCN(c2c(C#N)c(=O)n(-c3c(C)ccnc3C(C)C)c3nc(-c4c(N)c(F)c(F)c(F)c4F)c(Cl)cc23)CC1 (atropisomer, axis not shown; (M)) [Compound 1-2, (M)-4-(4-acryloylpiperazin-1-yl)-7-(2-amino-3,4,5,6-tetrafluorophenyl)-6-chloro-1-(2-isopropyl-4-methylpyridin-3-yl)-2-oxo-1,2-dihydro-1,8-naphthyridine-3-carbonitrile]
- Pharmacokinetic properties (in words) ([1]; beagle dog model, compared with Amgen 6 and 6.3): excellent pharmacokinetic properties
- CL ([1]; female): 18.1 mL/min/kg
- VSS ([1]; female): 1.1 L/kg
- AUC0-24 h ([1]; female): 5953 ng·h/mL
- Cmax ([1]; female): 2980 ng/mL
- Oral BA (F %) ([1]; female): 65.1%
- CL ([1]; male): 15.9 mL/min/kg
- VSS ([1]; male): 0.9 L/kg
- AUC0-24 h ([1]; male): 6724 ng·h/mL
- Cmax ([1]; male): 3420 ng/mL
- Oral BA (F %) ([1]; male): 64.3%
- Safety (mice body weight, FIG. 9) [4]: good safety
- TGI % (NCI-H1373 cells; 10 mg/kg, QD, Day 21): 103%
- Tumor volume at the end (Day 21) (NCI-H1373 cells; 10 mg/kg, QD, start volume 193 mm^3): 144 mm^3
- Efficacy in vivo (in words) (NCI-H1373 cells; Table 13 and FIG. 8): excellent efficacy in vivo
- IC50 [2]: 10.2 nM
- CL ([5]; female): 7.19 mL/min/kg
- VSS ([5]; female): 0.86 L/kg
- AUC0-24 h ([5]; female): 6854 ng·h/mL
- Cmax ([5]; female): 2680 ng/mL
- Oral BA (F %) ([5]; female): 98.9%
- CL ([5]; male): 5.25 mL/min/kg
- VSS ([5]; male): 0.61 L/kg
- AUC0-24 h ([5]; male): 7938 ng·h/mL
- Cmax ([5]; male): 2030 ng/mL
- Oral BA (F %) ([5]; male): 83.5%
- Pharmacokinetic properties (in words) ([5]; monkey model): excellent pharmacokinetic properties
